This is an account of results in patent publication US9962334B2, “Ophthalmic device having therapeutic agent delivery capability and method of forming same” (Novartis AG, priority 2008, dated 2018).

The structures appear in SMILES notation. Marks after values point to notes of the source that are not given here.

The conditions of series [1]: cited from earlier work.
The conditions of series [2]: cited from earlier work. This is another data set of the same source.
Series [3] relates to LEC migration and proliferation. Kind of series: In vitro inhibition of LEC migration and proliferation. Type of series: cell-based. The following applies: in vitro studies.

Turning to `O=C1O[C@H]([C@@H](O)CO)C(O)=C1O` [Ascorbic Acid], the “Exp. Log P/Hydrophobicity” value in series [1] was −0.5.
For the molecule `Nc1c(CC(=O)O)cccc1C(=O)c1ccc(Br)cc1` [Bromfenac], the “Water Solubility” value in series [2] is listed as 0.0126 mg/mL.
`COc1cc2c(c(OC)c1OC)-c1ccc(OC)c(=O)cc1[C@@H](NC(C)=O)CC2` [Colchicine]: in series [3], the “concentration as low as which LEC migration and proliferation was inhibited” value was found to be 0.0005 mg/mL. In series [1], the “Exp. Log P/Hydrophobicity” value was 1.3 and the “log P (PC log P)” value was 1.3.
Regarding `O=C(O)Cc1ccccc1Nc1c(Cl)cccc1Cl` [Diclofenac Sodium], the “log P (PC log P)” value in series [1] is reported as 1.1.
Consider `O=C(O)Cc1ccccc1Nc1c(Cl)cccc1Cl` [Diclofenac], for which, in series [2], the “soluble in water up to” value was “up to 50 mg/mL”.
For the molecule `O=C(c1ccccc1)c1ccc2n1CCC2C(=O)O` (stereo not drawn) [Ketorolac], the “Exp. Log P/Hydrophobicity” value in series [1] is on record as 2.1. Further, in series [2], the “Water Solubility” value is given as 25 mg/mL.
With `CO[C@@]12[C@H](COC(N)=O)C3=C(C(=O)C(C)=C(N)C3=O)N1C[C@@H]1N[C@@H]12` [Mitomycin-C], the “concentration as low as which LEC migration and proliferation was inhibited” value in series [3] is listed as 0.0005 mg/mL.
As to `NC(=O)Cc1cccc(C(=O)c2ccccc2)c1N` [Nepafenac], in series [1], the “Exp. Log P/Hydrophobicity” value is 2.11* and the “log P (PC log P)” value is 2.1.
